Assay [1] deals with N. gonorrhoeae strain FA 102.
The subject of assay [2] is S. aureus strain 8325-4. Conditions: for % Survival of S. aureus: Table 3, all peptides at 5×10^-4 M.
For assay [3], the system named is P. aeruginosa clinical isolates. The format is cell-based, Pseudomonas aeruginosa. Conditions: four independent clinical isolates. The source says:
P. aeruginosa ATCC 27853 (American Type Culture Collection, Rockville, Md.) is the strain used for testing antimicrobial activity against P. aeruginosa unless otherwise noted. It is a standardized strain for antibiotic-susceptibility testing of pseudomonads (see, e.g., Code of Federal Regulations, Title 21, Part 460, 1987). […] Agents effective against P. aeruginosa are needed in the art because multiple antibiotic resistance is quite common among clinical strains, and therefore resultant infections are often difficult to treat.
^1 3-5 × 10^7 CFU/ml of the designated strains were exposed
to 500 μg/ml of HPLCpurified peptides in 1/100 strength BHSS (10 mm
sodium phosphate, pH 7.0, 10 mM NaCl.

Assay [4] deals with S. aureus strain 8325-4. To be noted: strain 8325-4, 500.
Assay [5] concerns N. gonorrhoeae strain WS1. Conditions: strain WS1, 500.
The next assay relates to P. aeruginosa. Description: Bactericidal capacity of cathepsin G in 1% TSB, P. aeruginosa. To be noted: Table 11, 50 μg/ml, 2 h at 37° C. The format is cell-based, Pseudomonas aeruginosa.
Another assay relates to S. aureus. The format is cell-based, Staphylococcus aureus. To be noted: Table 11; 50 μg/ml; 1% TSB, 2 h at 37° C.

Where two headings read alike, the source gives them in different places. Where a SMILES comes first, the peptide text is derived from it. Some results are limits rather than exact numbers.

For the compound `N=C(N)NCCC[C@H](NC(=O)[C@H](CCC(N)=O)NC(=O)[C@H](CC(N)=O)NC(=O)[C@H](Cc1ccc(O)cc1)NC(=O)[C@H](CCC(N)=O)NC(=O)[C@@H]1CCCN1C(=O)[C@@H](N)Cc1c[nH]cn1)C(=O)O` [HPQYNQR] (H-HPQYNQR-OH), the “ED50 for N. gonorrhoeae” value in assay [1] amounted to 50 µM.

Take H^3m PQYNQR: the “% Survival of S. aureus” value in the assay on S. aureus strain 8325-4 [2] is on record as 18.3%.

For the compound `CC[C@H](C)[C@H](NC(=O)[C@H](Cc1c[nH]c2ccccc12)NC(=O)[C@@H]1CCCN1C(=O)[C@H](CC(C)C)NC(=O)[C@H](Cc1ccccc1)NC(=O)[C@H](CO)NC(=O)[C@H](CO)NC(=O)[C@@H](NC(=O)[C@H](Cc1ccccc1)NC(=O)[C@H](CCCNC(=N)N)NC(=O)[C@@H](NC(=O)[C@H](Cc1ccccc1)NC(=O)[C@@H](NC(=O)[C@H](CCC(=O)O)NC(=O)[C@@H]1CCCN1C(=O)[C@@H]1CCCN1C(=O)[C@@H](NC(=O)CNC(=O)[C@H](CO)NC(=O)[C@H](CO)NC(=O)[C@H](CCCCN)NC(=O)CN)C(C)C)C(C)C)[C@@H](C)O)C(C)C)C(=O)N[C@@H](CCCNC(=N)N)C(=O)N[C@H](C(=O)N[C@H](C(=O)N[C@@H](CCSC)C(=O)N[C@@H](CCCNC(=N)N)C(=O)O)[C@@H](C)O)[C@@H](C)O` [CG 198-223] (H-GKSSGVPPEVFTRFVSSFLPWIRTTMR-OH; N-terminus and C-terminus assumed), the “Log Kill (500 μg/ml) P. aeruginosa ATCC 278533” value with P. aeruginosa ATCC 27853 (Table 7A, RP-HPLC-purified peptides 500 μg/ml) is 5.73 log. For the same compound, the “killing of P. aeruginosa clinical strains (in words)” value in assay [3] is “some variability in effectiveness”. Besides, the “Log Kill (500 μg/ml) S. aureus strain 8325-4” value in the assay with S. aureus strain 8325-4 [4] worked out at 0.26 log.

With H^Dnp PQYNQR, the “% Survival of S. aureus” value with S. aureus strain 8325-4 [2] was 102.2%.

With `O=C(N[C@H](CO)[C@H](O)c1ccc([N+](=O)[O-])cc1)C(Cl)Cl` [Chloramphenicol, reference compound], in assay [1] (N. gonorrhoeae strain FA 102, each compound 5.0×10^-4 M, 30 min at 37° C., FIG. 5), the “bactericidal capacity compared with antibiotics and defensin pool (in words)” value was “more effective at this concentration than the defensin pool or the test peptides”.

With `CC[C@H](C)[C@H](N)C(=O)N[C@H](C(=O)NCC(=O)NCC(=O)N[C@@H](CCCNC(=N)N)C(=O)O)C(C)C` [IVGGR] (H-IVGGR-OH), in the assay on S. aureus strain 8325-4 [2], the ED50 is over 875 µM.

Consider `CC[C@H](C)[C@H](N)C(=O)N[C@H](C(=O)NCC(=O)NCC(=O)N[C@@H](CCCNC(=N)N)C(=O)N[C@@H](CCC(=O)O)C(=O)N[C@@H](CO)C(=O)N[C@@H](CCCNC(=N)N)C(=O)N1CCC[C@H]1C(=O)N[C@@H](Cc1c[nH]cn1)C(=O)N[C@@H](CO)C(=O)N[C@@H](CCCNC(=N)N)C(=O)N1CCC[C@H]1C(=O)N[C@@H](Cc1ccc(O)cc1)C(=O)N[C@@H](CCSC)C(=O)N[C@@H](C)C(=O)N[C@@H](Cc1ccc(O)cc1)C(=O)N[C@@H](CC(C)C)C(=O)N[C@@H](CCC(N)=O)C(=O)N[C@H](C(=O)O)[C@@H](C)CC)[C@@H](C)CC` [CG 1-20] (H-IIGGRESRPHSRPYMAYLQI-OH), for which, in the assay with P. aeruginosa ATCC 27853 (ATCC 27853, 500), the “Log Kill (500 μg/ml) P. aeruginosa ATCC 27853” value turned out to be 5.507 log and the “Log Kill (500 μg/ml) P. aeruginosa ATCC 278533” value amounted to 1.0 log. For the same compound, the “Log Kill (500 μg/ml) S. aureus strain 8325-4” value with S. aureus strain 8325-4 [4] was 0.3 log. For the same compound, in assay [5], the “Log Kill (500 μg/ml) N. gonorrhoeae strain WS1” value was found to be 2.57 log and the “Log Kill (500 μg/ml) N. gonorrhoeae strain WSI” value came to 0.43 log.

With `CC[C@H](C)[C@H](N)C(=O)N[C@H](C(=O)NCC(=O)NCC(=O)N[C@@H](CCCNC(=N)N)C(=O)O)[C@@H](C)CC` [IIGGR] (H-IIGGR-OH), in the assay on S. aureus strain 8325-4 [2], the ED50 was found to be 430 µM.

As for “enzymatically active Cat G: cathepsin G purified from extracts of human PMN granules”, the “Log Reduction in CFU/ml P. aeruginosa” value in the assay with P. aeruginosa was 2.41 log. Also, in the assay with S. aureus strain 8325-4 [2] (HBSS, optimal conditions), the “ED50 for S. aureus” value came to 4 µM. Further, in the assay with S. aureus, the “Log Reduction in CFU/ml S. aureus” value came out at 2.82 log.

For the compound `CC(C)C[C@H](NC(=O)CNC(=O)[C@H](CCC(=O)O)NC(=O)[C@H](CCC(N)=O)NC(=O)[C@H](C)NC(=O)[C@H](CCCNC(=N)N)NC(=O)[C@@H]1CCCN1C(=O)[C@H](CC(C)C)NC(=O)[C@H](C)NC(=O)[C@@H](NC(=O)[C@@H]1CCCN1C(=O)[C@H](CC(N)=O)NC(=O)[C@@H](NC(=O)[C@H](CC(N)=O)NC(=O)[C@H](CCCNC(=N)N)NC(=O)[C@H](CC(N)=O)NC(=O)[C@H](CCCNC(=N)N)NC(=O)[C@H](CCCNC(=N)N)NC(=O)[C@@H](NC(=O)[C@@H](N)CCCNC(=N)N)C(C)C)C(C)C)C(C)C)C(=O)O` [CG 97-116] (H-RVRRNRNVNPVALPRAQEGL-OH), in the assay on P. aeruginosa ATCC 27853 (ATCC 27853, 500), the “Log Kill (500 μg/ml) P. aeruginosa ATCC 27853” value was 5.93 log and the “Log Kill (500 μg/ml) P. aeruginosa ATCC 278533” value was 0.22 log. Moreover, the “Log Kill (500 μg/ml) S. aureus strain 8325-4” value in the assay with S. aureus strain 8325-4 [4] was -0.1 log. Also, in assay [5], the “Log Kill (500 μg/ml) N. gonorrhoeae strain WS1” value is -0.21 log and the “Log Kill (500 μg/ml) N. gonorrhoeae strain WSI” value stood at 0.2 log.

As for H^Benzyl PQYNQR, the “% Survival of S. aureus” value in the assay on S. aureus strain 8325-4 [2] is recorded as 99.0%.

Take `CSCC[C@H](NC(=O)[C@H](CO)NC(=O)[C@@H](NC(=O)[C@H](CCCNC(=N)N)NC(=O)CNC(=O)[C@H](Cc1c[nH]c2ccccc12)NC(=O)CNC(=O)[C@H](C)NC(=O)[C@@H](NC(=O)[C@@H](NC(=O)[C@@H](N)CS)[C@@H](C)O)C(C)C)C(C)C)C(=O)N[C@@H](CCCNC(=N)N)C(=O)N[C@@H](CCCNC(=N)N)C(=O)NCC(=O)N[C@H](C(=O)O)[C@@H](C)O` [CG 122-136] (H-CTVAGWGRVSMRRGT-OH): in the assay on P. aeruginosa ATCC 27853 (ATCC 27853, 500), the “Log Kill (500 μg/ml) P. aeruginosa ATCC 27853” value is on record as 4.75 log. In addition, the “Log Kill (500 μg/ml) S. aureus strain 8325-4” value in the assay on S. aureus strain 8325-4 [4] was 0 log. Further, the “Log Kill (500 μg/ml) N. gonorrhoeae strain WS1” value in assay [5] was found to be 4.18 log.

Regarding `CC(C)C[C@H](NC(=O)[C@@H](NC(=O)CNC(=O)[C@@H]1CCCN1C(=O)[C@@H](N)CCCNC(=N)N)[C@@H](C)O)C(=O)N[C@@H](CS)C(=O)N[C@H](C(=O)N[C@H](C(=O)N[C@@H](C)C(=O)NCC(=O)N[C@@H](Cc1c[nH]c2ccccc12)C(=O)NCC(=O)N[C@@H](CCCNC(=N)N)C(=O)O)C(C)C)[C@@H](C)O` [CG 117-129] (H-RPGTLCTVAGWGR-OH), the “Log Kill (500 μg/ml) P. aeruginosa ATCC 27853” value in the assay on P. aeruginosa ATCC 27853 (ATCC 27853, 500) was determined as 0.86 log. Besides, the “Log Kill (500 μg/ml) S. aureus strain 8325-4” value in the assay with S. aureus strain 8325-4 [4] came out at 0 log. Besides, the “Log Kill (500 μg/ml) N. gonorrhoeae strain WS1” value in assay [5] is reported as 0.05 log.

As for H^1m QYNQR, the “% Survival of S. aureus” value with S. aureus strain 8325-4 [2] was 37.3%.

Values taken from patent publication US5798336A, “Antimicrobial peptides” (priority 1995, dated 1998).
